Holding throughout (assay type): biochemical
Assay [1] has as its target T1, Lck (Homo sapiens, UniProt P06239).
T1 construct: Kinases are expressed as either kinase domains or full length constructs; made in house
Nature of the assay: Kinase inhibition assay (33P transfer), Lck. The settings on record: read-out: Lck-1. The gist of the method: (§1)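 Enzyme activity is taken as the amount of 33PO4 moved from ATP onto poly(Glu, Tyr) 4:1 or poly(Arg, Ser) 3:1 fixed to the plate surface. Unbound label is removed with 0.5% phosphoric acid before scintillation counting.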

In assay [2] the target is T2, Zap-70 (Homo sapiens, UniProt P43403).
T2 construct: Kinases are expressed as either kinase domains or full length constructs; made in house
T2 sequence (P43403 1-619): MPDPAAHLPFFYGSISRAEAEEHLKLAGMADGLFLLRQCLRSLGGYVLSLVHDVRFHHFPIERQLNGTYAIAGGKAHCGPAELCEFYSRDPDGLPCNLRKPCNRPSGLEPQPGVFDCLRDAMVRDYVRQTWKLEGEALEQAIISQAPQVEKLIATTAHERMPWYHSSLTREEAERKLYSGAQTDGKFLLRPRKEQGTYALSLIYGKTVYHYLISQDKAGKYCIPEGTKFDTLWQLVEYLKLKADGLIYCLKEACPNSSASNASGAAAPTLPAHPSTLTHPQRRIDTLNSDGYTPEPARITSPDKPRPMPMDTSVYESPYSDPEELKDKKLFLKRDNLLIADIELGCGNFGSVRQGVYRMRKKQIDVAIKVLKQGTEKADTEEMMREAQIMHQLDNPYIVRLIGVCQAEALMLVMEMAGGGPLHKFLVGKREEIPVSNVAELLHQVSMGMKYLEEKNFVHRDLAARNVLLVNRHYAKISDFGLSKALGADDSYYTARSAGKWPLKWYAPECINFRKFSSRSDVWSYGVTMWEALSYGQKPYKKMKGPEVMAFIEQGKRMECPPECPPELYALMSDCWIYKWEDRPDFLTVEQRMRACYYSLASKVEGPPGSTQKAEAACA
As to the kind of experiment: Kinase inhibition assay (33P transfer), Zap-70. The settings on record: read-out: Zap-1. The gist of the method:
as §1

Assay [3] has as its target T3, Itk (Homo sapiens, UniProt Q08881).
T3 construct: Kinases are expressed as either kinase domains or full length constructs; made in house
T3 sequence (Q08881 1-620): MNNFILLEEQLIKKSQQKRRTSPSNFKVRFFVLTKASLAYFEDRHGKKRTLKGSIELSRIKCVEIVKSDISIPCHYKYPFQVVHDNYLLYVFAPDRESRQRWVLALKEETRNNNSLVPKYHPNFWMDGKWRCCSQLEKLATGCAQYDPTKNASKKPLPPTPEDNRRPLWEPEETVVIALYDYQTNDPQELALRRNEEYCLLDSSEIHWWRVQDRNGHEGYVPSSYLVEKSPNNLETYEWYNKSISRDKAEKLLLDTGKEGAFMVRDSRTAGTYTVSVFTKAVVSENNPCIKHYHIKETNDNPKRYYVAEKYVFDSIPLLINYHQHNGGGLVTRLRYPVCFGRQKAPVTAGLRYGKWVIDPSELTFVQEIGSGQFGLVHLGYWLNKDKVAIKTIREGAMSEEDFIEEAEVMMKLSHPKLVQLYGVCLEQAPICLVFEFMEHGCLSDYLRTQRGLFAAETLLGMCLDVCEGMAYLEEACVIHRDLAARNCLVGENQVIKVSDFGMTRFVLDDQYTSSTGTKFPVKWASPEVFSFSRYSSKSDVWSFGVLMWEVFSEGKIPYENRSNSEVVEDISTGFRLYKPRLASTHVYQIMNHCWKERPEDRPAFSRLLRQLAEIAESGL
Nature of the assay: Kinase inhibition assay (33P transfer), Itk. The settings on record: read-out: Itk-1. The essentials: (§2)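 Kinase domains or full-length enzymes, GST- or polyHis-tagged, were expressed in E. coli or baculovirus High Five cells and affinity-purified. Transfer of 33PO4 from ATP onto plate-bound poly(Glu,Tyr) 4:1 or poly(Arg,Ser) 3:1 was counted by liquid scintillation after a 0.5% phosphoric acid wash. IC50 = concentration halving incorporation.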

Assay [4] has as its target T4, EGFR (Homo sapiens, UniProt P00533).
T4 construct: Kinases are expressed as either kinase domains or full length constructs; made in house
As to the kind of experiment: Kinase inhibition assay (33P transfer), EGFR. The settings on record: Table 2, kinase inhibition class; read-out: EGFR-1. The gist of the method: as §2

Assay [5] addresses T5, ErbB2 (Homo sapiens, UniProt P04626).
T5 construct: Kinases are expressed as either kinase domains or full length constructs; made in house
As to the kind of experiment: Kinase inhibition assay (33P transfer), ErbB2. The settings on record: read-out: ErbB2-2. An excerpt: The inhibitor compounds described herein are screened in the following manner. Kinases suitable for use in the following protocol to determine kinase activity of the compounds described herein include, -but are not limited to: Lck, Lyn, Src, Fyn, Syk, Zap-70, Itk, Tec, Btk, EGFR, ErbB2, Kdr, Flt-1, Flt-3, Tek, c-Met, InsR, and AKT.
Kinases are expressed as either kinase domains or full length constructs fused to glutathione S-transferase (GST) or polyHistidine tagged fusion proteins in either E. colior Baculovirus-High Five expression systems. They are purified to near homogeneity by affinity chromatography essentially as previously described (Lehr et al., 1996; Gish et al., 1995). In some instances, kinases are co-expressed or mixed with purified or partially purified regulatory polypeptides prior to measurement of activity.
Kinase activity and inhibition are measured essentially by established protocols (Braunwalder et al., 1996). Briefly, The transfer of ^33PO4 from ATP to the synthetic substrates poly(Glu, Tyr) 4:1 or poly(Arg, Ser) 3:1 attached to the bioactive surface of microtiter plates serves as the basis to evaluate enzyme activity. After an incubation period, the amount of phosphate transferred is measured by first washing the plate with 0.5% phosphoric acid, adding liquid scintillant, and then counting in a liquid scintillation detector. The IC50 is determined by the concentration of compound that causes a 50% reduction in the amount of […] incorporated onto the substrate bound to the plate.

For assay [6], the target named is T6, Kdr (Homo sapiens, UniProt P35968).
T6 construct: Kinases are expressed as either kinase domains or full length constructs; made in house
Nature of the assay: Kinase inhibition assay (33P transfer), Kdr. The settings on record: read-out: KDR-1. The essentials: as §1

For assay [7], the target named is T7, c-Met (Homo sapiens, UniProt P08581).
T7 construct: Kinases are expressed as either kinase domains or full length constructs; made in house
T7 sequence (P08581 25-1390): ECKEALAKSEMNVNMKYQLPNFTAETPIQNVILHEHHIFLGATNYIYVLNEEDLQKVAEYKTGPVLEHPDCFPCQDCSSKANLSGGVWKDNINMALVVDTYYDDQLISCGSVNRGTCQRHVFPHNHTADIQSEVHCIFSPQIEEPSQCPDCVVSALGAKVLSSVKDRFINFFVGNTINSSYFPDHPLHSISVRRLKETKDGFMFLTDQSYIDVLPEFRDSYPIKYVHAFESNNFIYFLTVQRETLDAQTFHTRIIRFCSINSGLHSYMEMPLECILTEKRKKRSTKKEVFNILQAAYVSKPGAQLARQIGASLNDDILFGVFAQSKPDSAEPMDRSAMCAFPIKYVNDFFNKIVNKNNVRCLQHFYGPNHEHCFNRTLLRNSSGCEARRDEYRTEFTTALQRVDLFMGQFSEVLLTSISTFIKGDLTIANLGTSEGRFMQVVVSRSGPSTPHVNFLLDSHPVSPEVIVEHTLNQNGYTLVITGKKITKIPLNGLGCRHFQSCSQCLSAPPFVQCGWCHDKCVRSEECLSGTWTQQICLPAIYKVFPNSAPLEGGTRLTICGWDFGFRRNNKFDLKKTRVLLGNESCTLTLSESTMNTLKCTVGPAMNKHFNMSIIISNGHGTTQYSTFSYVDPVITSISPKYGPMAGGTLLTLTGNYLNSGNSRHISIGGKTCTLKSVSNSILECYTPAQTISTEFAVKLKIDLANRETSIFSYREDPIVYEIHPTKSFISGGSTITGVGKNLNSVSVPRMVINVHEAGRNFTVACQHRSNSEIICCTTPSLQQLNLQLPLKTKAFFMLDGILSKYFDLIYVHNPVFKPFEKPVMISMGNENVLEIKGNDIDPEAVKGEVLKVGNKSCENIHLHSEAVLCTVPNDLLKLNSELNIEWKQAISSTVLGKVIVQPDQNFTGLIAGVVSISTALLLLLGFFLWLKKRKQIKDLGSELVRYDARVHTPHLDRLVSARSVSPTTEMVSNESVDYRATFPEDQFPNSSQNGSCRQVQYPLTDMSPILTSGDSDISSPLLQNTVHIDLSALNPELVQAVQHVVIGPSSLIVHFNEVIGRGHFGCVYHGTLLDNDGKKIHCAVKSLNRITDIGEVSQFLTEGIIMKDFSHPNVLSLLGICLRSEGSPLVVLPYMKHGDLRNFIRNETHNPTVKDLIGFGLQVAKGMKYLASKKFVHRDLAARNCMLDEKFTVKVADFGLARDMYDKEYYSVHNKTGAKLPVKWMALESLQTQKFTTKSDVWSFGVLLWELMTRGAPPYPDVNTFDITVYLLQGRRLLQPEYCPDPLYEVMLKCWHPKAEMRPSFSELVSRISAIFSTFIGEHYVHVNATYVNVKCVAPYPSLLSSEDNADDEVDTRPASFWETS
As to the kind of experiment: Kinase inhibition assay (33P transfer), c-Met. The settings on record: Table 2, kinase inhibition class; read-out: Met-1. The gist of the method:
as §2

Assay [8] addresses T8, AKT (Homo sapiens, UniProt Q9Y243).
T8 construct: Kinases are expressed as either kinase domains or full length constructs; made in house
As to the kind of experiment: Kinase inhibition assay (33P transfer), AKT. Conditions: Table 2, kinase inhibition class; read-out: AKT3-1. The gist of the method:
as §1

Assay [9] has as its target T9, IGFR-1 (Homo sapiens, UniProt P08069).
T9 construct: Kinases are expressed as either kinase domains or full length constructs; made in house
Nature of the assay: Kinase inhibition assay, IGFR-1 (Table 2). Conditions: Table 2, kinase inhibition class.

Assay [10] has as its target T10, PDGFRB (Homo sapiens, UniProt P09619).
T10 construct: Kinases are expressed as either kinase domains or full length constructs; made in house
As to the kind of experiment: Kinase inhibition assay (33P transfer), PDGFRB. Conditions: read-out: PDGFRB-1.

T8 sequence (Q9Y243 whole entry, the tested form may be a part): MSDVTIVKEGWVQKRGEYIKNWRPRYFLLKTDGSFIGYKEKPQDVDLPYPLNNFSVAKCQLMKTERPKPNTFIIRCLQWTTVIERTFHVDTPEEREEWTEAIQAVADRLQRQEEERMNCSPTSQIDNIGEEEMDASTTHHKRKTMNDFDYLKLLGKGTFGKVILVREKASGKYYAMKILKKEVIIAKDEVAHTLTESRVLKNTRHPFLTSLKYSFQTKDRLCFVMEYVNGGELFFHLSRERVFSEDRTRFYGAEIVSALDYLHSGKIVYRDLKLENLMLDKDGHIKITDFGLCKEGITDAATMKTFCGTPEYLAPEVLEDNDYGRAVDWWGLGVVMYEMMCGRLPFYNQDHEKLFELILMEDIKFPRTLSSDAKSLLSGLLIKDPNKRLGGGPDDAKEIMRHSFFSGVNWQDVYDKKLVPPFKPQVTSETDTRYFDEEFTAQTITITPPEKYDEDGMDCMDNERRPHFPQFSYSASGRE
T4 sequence (P00533 25-1210, species assumed): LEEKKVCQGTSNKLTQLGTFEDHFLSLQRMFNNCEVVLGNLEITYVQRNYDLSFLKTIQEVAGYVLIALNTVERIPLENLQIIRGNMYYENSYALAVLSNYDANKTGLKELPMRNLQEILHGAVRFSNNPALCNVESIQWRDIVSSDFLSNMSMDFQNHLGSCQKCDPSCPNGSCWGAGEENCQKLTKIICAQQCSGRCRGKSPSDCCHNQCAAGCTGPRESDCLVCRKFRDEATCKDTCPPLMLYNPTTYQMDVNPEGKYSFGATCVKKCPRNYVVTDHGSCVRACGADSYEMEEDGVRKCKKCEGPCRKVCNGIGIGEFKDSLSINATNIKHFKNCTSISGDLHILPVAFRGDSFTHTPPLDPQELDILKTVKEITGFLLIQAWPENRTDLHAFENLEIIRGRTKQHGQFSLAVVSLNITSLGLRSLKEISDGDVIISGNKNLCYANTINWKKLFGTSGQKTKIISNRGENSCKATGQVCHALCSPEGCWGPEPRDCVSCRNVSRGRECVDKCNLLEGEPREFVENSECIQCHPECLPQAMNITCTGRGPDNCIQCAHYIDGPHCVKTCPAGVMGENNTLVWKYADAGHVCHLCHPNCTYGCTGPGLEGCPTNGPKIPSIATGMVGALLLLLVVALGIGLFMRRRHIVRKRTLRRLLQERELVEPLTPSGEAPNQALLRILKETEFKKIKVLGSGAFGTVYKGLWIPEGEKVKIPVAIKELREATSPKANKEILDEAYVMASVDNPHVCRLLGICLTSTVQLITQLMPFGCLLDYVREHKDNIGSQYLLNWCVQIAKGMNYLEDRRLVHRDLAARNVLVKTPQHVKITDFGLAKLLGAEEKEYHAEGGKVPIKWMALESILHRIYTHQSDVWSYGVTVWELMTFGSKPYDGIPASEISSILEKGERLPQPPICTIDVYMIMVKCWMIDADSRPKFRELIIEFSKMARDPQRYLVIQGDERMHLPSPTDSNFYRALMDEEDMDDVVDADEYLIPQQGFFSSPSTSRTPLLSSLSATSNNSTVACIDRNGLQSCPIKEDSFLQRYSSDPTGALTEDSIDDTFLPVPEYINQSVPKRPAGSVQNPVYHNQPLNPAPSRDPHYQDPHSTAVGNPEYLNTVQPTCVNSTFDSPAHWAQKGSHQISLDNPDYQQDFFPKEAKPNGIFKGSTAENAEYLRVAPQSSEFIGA
T1 sequence (P06239 whole entry, species assumed, the tested form may be a part): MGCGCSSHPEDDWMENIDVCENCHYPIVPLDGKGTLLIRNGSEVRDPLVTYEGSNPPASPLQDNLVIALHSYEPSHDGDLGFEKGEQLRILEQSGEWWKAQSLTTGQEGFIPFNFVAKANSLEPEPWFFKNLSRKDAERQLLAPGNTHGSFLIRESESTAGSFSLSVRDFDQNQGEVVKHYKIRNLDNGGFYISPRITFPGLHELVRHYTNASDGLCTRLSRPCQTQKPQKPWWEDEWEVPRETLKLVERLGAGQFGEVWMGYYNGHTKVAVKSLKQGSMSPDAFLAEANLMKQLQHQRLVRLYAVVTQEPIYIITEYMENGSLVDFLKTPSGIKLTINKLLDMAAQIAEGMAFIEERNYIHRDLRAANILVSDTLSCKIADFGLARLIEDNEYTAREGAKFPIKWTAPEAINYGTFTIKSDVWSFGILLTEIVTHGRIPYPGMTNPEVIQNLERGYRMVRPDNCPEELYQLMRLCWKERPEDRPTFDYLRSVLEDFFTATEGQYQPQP
T5 sequence (P04626 23-1255, species assumed): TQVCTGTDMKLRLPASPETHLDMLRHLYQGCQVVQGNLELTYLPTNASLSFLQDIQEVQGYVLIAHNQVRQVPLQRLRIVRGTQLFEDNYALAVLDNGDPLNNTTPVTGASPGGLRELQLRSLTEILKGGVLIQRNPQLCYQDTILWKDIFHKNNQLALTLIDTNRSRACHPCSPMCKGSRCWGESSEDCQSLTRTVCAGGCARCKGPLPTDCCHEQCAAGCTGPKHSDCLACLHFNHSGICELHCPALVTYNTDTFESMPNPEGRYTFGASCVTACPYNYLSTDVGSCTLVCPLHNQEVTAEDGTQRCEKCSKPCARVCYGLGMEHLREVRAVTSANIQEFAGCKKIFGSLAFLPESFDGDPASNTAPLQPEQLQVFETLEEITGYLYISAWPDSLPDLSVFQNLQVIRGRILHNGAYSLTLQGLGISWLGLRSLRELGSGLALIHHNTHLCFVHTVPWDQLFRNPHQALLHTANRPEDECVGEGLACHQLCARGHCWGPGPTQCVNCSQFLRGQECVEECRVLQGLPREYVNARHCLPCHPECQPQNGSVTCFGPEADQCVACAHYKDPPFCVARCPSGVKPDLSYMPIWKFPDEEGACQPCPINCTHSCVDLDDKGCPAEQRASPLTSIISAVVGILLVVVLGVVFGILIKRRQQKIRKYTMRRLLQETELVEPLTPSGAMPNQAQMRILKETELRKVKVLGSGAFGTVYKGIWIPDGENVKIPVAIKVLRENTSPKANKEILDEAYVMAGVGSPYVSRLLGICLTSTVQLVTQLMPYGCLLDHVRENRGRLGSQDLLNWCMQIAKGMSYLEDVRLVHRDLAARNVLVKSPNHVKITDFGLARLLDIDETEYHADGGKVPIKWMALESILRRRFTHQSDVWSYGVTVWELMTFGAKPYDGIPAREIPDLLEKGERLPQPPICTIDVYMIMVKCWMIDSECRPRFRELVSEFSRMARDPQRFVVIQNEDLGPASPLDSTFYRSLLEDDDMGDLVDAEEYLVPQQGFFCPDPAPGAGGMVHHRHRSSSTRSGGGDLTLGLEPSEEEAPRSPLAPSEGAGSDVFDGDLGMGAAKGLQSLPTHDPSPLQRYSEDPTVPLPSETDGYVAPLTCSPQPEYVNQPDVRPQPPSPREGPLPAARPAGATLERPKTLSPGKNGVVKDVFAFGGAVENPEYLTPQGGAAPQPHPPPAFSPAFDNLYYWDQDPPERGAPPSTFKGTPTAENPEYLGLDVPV

As for `COC(=O)Cc1cccc(Nc2ncnc(-n3c(NCc4ccc(OC)cc4)nc4ccccc43)n2)c1` [Compound 548], the IC50 in [1] was greater than 9.08 µM; in assay [2] it was greater than 9.08 µM; in assay [3], greater than 9.08 µM; in assay [4], greater than 9.08 µM; in assay [5], greater than 9.08 µM; in assay [6], less than 0.807 µM. For the same compound, the IC50 in [7], in assay [8], in assay [9] and in assay [10] was greater than 9.08 µM throughout.

With `COc1cc(Nc2ncnc(-n3c(NCc4nccs4)nc4ccccc43)n2)cc(OC)c1OC` [Compound 549], the IC50 is 0.815 to 4.89 µM in [1]; greater than 9.17 µM in assay [2]; greater than 9.17 µM in [3]; 4.89 to 7.13 µM in assay [4]; 0.815 to 4.89 µM in assay [5]; less than 0.815 µM in [6]. Moreover, the IC50 is greater than 9.17 µM in assay [7], greater than 9.17 µM in assay [8], greater than 9.17 µM in assay [9] and less than 0.815 µM in [10].

Turning to `CN1CCN(Cc2cccc(Nc3ncnc(Nc4cccc5ccccc45)n3)c2)CC1` [Compound 551], the IC50 in [1], in assay [2], in assay [3], in assay [4], in assay [5] and in [6] was greater than 10.6 µM in each case. In addition, the IC50 in assay [7] was 8.22 to 10.6 µM; in [8], greater than 10.6 µM; in assay [9] it was greater than 10.6 µM; in assay [10], greater than 10.6 µM.

Consider `CN1CCN(Cc2cccc(Nc3ncnc(Nc4ccc5c(cnn5Cc5ccccc5)c4)n3)c2)CC1` [Compound 552], for which the IC50 in assay [1], in [2], in assay [3], in assay [4], in assay [5] and in [6] was greater than 8.9 µM in each case. Also, the IC50 in [7], in [8], in assay [9] and in assay [10] was greater than 8.9 µM each time.

In the case of `Cc1cccc(Nc2ncnc(Nc3ccc4c(cnn4Cc4ccccc4)c3)n2)c1` [Compound 553], the IC50 in assay [1] was greater than 11 µM; in assay [2] it was 5.89 to 8.59 µM; in assay [3], 8.59 to 11 µM; in [4] it was less than 0.982 µM; in [5], 0.982 to 5.89 µM; in [6], 0.982 to 5.89 µM. The IC50 in assay [7] lay in the range of 0.982 to 5.89 µM; in assay [8], 5.89 to 8.59 µM; in assay [9] it was 8.59 to 11 µM; in assay [10], 0.982 to 5.89 µM.

For `Brc1cccc(Nc2ncnc(Nc3ccc4c(cnn4Cc4ccccc4)c3)n2)c1` [Compound 554], the IC50 is 5.08 to 7.41 µM in [1]; 7.41 to 9.53 µM in [2]; greater than 9.53 µM in assay [3]; less than 0.847 µM in assay [4]; 5.08 to 7.41 µM in assay [5]; 0.847 to 5.08 µM in assay [6]. Moreover, the IC50 in [7] was 5.08 to 7.41 µM; in assay [8] it was 7.41 to 9.53 µM; in assay [9], greater than 9.53 µM; in assay [10], 7.41 to 9.53 µM.

Take `COc1cc(Nc2ncnc(Nc3ccc4nn(Cc5ccccc5)cc4c3)n2)cc(OC)c1OC` [Compound 555]: the IC50 is less than 0.827 µM in assay [1]; 7.24 to 9.31 µM in [2]; 7.24 to 9.31 µM in assay [3]; less than 0.827 µM in assay [4]; 0.827 to 4.96 µM in [5]; 0.827 to 4.96 µM in assay [6]. Besides, the IC50 in assay [7] was 4.96 to 7.24 µM; in assay [8] it was 4.96 to 7.24 µM; in assay [9], less than 0.827 µM; in [10], 0.827 to 4.96 µM.

For `COc1cc(Nc2ncnc(Nc3ccc4nn(C)cc4c3)n2)cc(OC)c1OC` [Compound 556], the IC50 in [1] was less than 0.982 µM; in assay [2], greater than 11 µM; in assay [3] it was 0.982 to 5.89 µM; in [4], 0.982 to 5.89 µM; in assay [5], less than 0.982 µM; in assay [6], 0.982 to 5.89 µM. Further, the IC50 in assay [7] is greater than 11 µM; in assay [8] it was greater than 11 µM; in assay [9] it was less than 0.982 µM; in assay [10], less than 0.982 µM.

Values taken from patent US7074789B2, “Kinase inhibitors” (Amgen Inc., priority 1999, dated 2006).
